In patent publication US20100197765A1, “METHOD FOR PROMOTING THE EXPRESSION OF P53, AND P53 EXPRESSION PROMOTER FOR USE IN THE METHOD” (THE UNIVERSITY OF TOKUSHIMA, priority 2007, published 2010):

How the values were obtained:
[1] = system: vegf mRNA; assay: vegf mRNA expression by Northern blotting in HepG2 cells expressing vegf siRNA; type: cell-based, human; conditions: HepG2, 18 hours after vector transfection, vs untransfected and control siRNA cells
Procedure: Total RNAs were extracted according to a guanidine thiocyanate method. Labeled cDNAs were produced using the following antisense primers, a klenow fragment (New England BioLabs, Inc., Inc.), and [α^−32P]dCTP, with the following cDNAs being templates. Thus obtained labeled cDNAs were used as probes for the Northern blotting.
The vegf siRNA #1 vectors, the vegf siRNA #2 vectors, and the control siRNA vectors were transfected into HepG2 cells (wild-type p53). These cells were cultured for 18 hours, and the expression level of vegf mRNA was analyzed by the Northern blotting. Also, with respect to the HepG2 cells not transfected with the vectors, the analysis was performed in the same manner. At the time of analysis, gapdh mRNA in each type of the cells was monitored as a loading control (hereinafter, the same applies). The cells were cultured using DMEM medium containing 10% fetal bovine serum and 100 μg/ml (100 units/ml) of streptomycin under the condition of 37° C. and 5% CO2 (hereinafter, the same applies).

[2] = system: HCT116 cell strain; assay: tumor volume of si-vegf #1 HCT116 cell strain xenografted to nude mice; type: in vivo; conditions: si-vegf #1 cells vs si-Control cells, subcutaneous, n=5
Description: With regard to cells expressing siRNA against vegf, the effect thereof on the tumorigenicity in vivo was examined. Vegf siRNA #1 vectors expressing the above-described siRNA #1 were transfected into a HCT116 cell strain (wild-type p53) derived from human large bowel cancer, and the transfected cells were selected with an antibiotic blasticidin. The thus-obtained cell clone hereinafter is referred to as a si-vegf #1 cell strain. As a control, pcDNA6.2-GW/EmGFP-miR vectors (Invitrogen) to which a double-stranded oligonucleotide with a sequence (SEQ ID NO. 46: 5′-[…]-3′) having no homology to known vertebrate genes had been inserted were used (control siRNA vectors) as in the above. The […] cell strain was transfected with these control siRNA vectors in the same manner as in the above, and the transfected cells were selected with the antibiotic. The thus-obtained cell clone hereinafter is referred to as a si-Control cell strain. Then, the si-vegf #1 cell strain and the si-Control cell strain respectively were xenografted subcutaneously to femoral regions of nude mice, and the volume of the formed tumor was measured after the predetermined time (each n=5) in the same manner as in Example C2.

[3] = system: vegf mRNA; assay: vegf mRNA by quantitative RT-PCR in siRNA-transfected HCT116 cells; type: cell-based, human; conditions: HCT116, 18 hours after transfection, ratio to gapdh mRNA
Procedure: From 1 μg of total RNA, cDNA was synthesized using SuperScriptII RNaseH(−) reverse transcriptase (Invitrogen), and PCR was performed using primers for amplification-purpose nucleic sequences with the cDNA being a template. The amplification and the quantitative analysis of PCR products were performed using Applied Biosystems 7500 (Applied Biosystems) by the method recommended by the manufacturer.
(§1) Whether or not vegf siRNA promotes the apoptosis sensitivity of cells was examined. In the same manner as in Example A1 except that HCT116 cells (parent cells, wild-type p53) were used instead of the HepG2 cells (wild-type p53), the vegf siRNA #1 vectors expressing siRNA #1, the vegf siRNA #2 vectors expressing siRNA #2, and the control siRNA vectors described above were respectively transfected into the HCT116 cells (parent cells, wild-type p53). Then, with regard to the cells after 18 hours from the transfection, the expression levels of vegf mRNA and gapdh mRNA were analyzed by quantitative RT-PCR (means±SD, n=4) and the expression levels of vegf IresRNA and gapdh mRNA were analyzed by Northern blotting. Also, with regard to HCT116 cells not transfected with the above-described recombinant vectors, the analyses were conducted in the same manner. The quantitative RT-PCR was conducted in the same manner as in Example B1, except that a primer set for vegf mRNA was used.

[4] = system: vegf IresRNA; assay: vegf IresRNA by Northern blotting in siRNA-transfected HCT116 cells; type: cell-based, human; conditions: HCT116, 18 hours after transfection, vs control cells
Procedure: as §1

[5] = system: p53; assay: endogenous p53 mRNA (quantitative RT-PCR) and p53 protein (Western) in siRNA-transfected HCT116 cells; type: cell-based, human
Procedure: From the results obtained in the above (1) and (2), it is interpreted that vegf IresRNA exerts an adverse influence in the p53 cancer suppression pathway. Thus, the expression level of endogenous p53 in cells transfected with vegf siRNA was examined. Specifically, the same transfected parent cells […] as in the above were treated for 8 hours in the presence of 80 lμmol/L of 5-FU (+) or in the absence of 5-FU (−), after which expression of p53 mRNA was analyzed by quantitative RT-PCR (means±SD, n=4). Also, the transfected cells were treated in the presence of 80 μmol/L of 5-FU (+) for a predetermined time (0, 8, 16, 24 hours), after which p53 protein was detected by the Western immunoblotting described above.

[6] = system: bax mRNA and noxa mRNA; assay: bax and noxa mRNA by quantitative RT-PCR in siRNA-transfected HCT116 cells; type: cell-based, human; conditions: HCT116, 5-FU 80 μmol/L, 24 hours, vs control
Procedure: Whether or not the increase in the 5-FU-induced expression of p53 mRNA caused by the knockdown of vegf IresRNA by vegf siRNA induces expression of mRNA of a bax gene or a noxa gene, which are both p53 target genes, was examined. Cells obtained by transfecting the same control siRNA vectors, vegf siRNA #1 vectors, or vegf siRNA #2 vectors as in the above into parent cells HCT116 were treated for 24 hours in the presence of 80 μmol/L of 5-FU (+) or in the absence of 5-FU (−). Thereafter, expressions of bax mRNA and noxa mRNA were analyzed by quantitative RT-PCR (means±SD, n=4).

[7] = HCT116, absence of 5-FU, vs control
[8] = HCT116, further treated with 5-FU 80 μmol/L, 8 hours
[9] = HCT116, further treated with 5-FU 80 μmol/L, up to 24 hours

| Substance | expression amount of vegf mRNA [1] | tumor formation and tumor growth [2] | amount of the vegf mRNA expressed [3] | amount of the expressed vegf IresRNA [4] | amount of the expressed p53 mRNA [5, 7] | amount of the expressed p53 mRNA [5, 8] | amount of the expressed p53 protein [5, 9] | amount of the expressed p53 protein ([5]; HCT116, vs control) | induction of the expressions of bax mRNA and noxa mRNA by 5-FU [6] |
| --- | --- | --- | --- | --- | --- | --- | --- | --- | --- |
| siRNA #1: siRNA against vegf mRNA, SEQ ID NO 3/4, antisense complementary to bases 1062-1082 in SEQ ID NO. 1; expressed from pcDNA6.2-GW/EmGFP-miR vector (sense GCAUUGGACUUGCCUUGCUNN; antisense AGCAAGGCAAGGCUCCAAUGCNN) | decreased markedly | significant suppression | decreased markedly | decreased | increased | increased markedly | increased markedly | increased | promoted markedly |
| siRNA #2: siRNA against vegf mRNA, SEQ ID NO 5/6, antisense complementary to bases 1067-1087 in SEQ ID NO. 1; vector-expressed (sense GGAGCCUUGUUGCUGCUCUNN; antisense AGAGCAGCAAGGCAAGGCUCCNN) | decreased markedly | – | decreased markedly | decreased markedly | increased | increased markedly | increased markedly | increased | promoted markedly |
